Test results reported in ChEMBL document CHEMBL5465560, “Selectivity Literature for EUbOPEN Chemogenomic Library” (2024).
One block for each molecule: values may come before it.

Key:
[1] = biological target: RAC-alpha serine/threonine-protein kinase (Homo sapiens, UniProt P31749); assay: Selectivity interaction (Kinase panel (Z-LYTE Assay)) EUB0001632a AKT1; details: at 10 µM
[2] = biological target: Serine/threonine-protein kinase RIO2 (Homo sapiens) (UniProt Q9BVS4); assay: Selectivity interaction (KinomeScan (DiscoverX)) EUB0000607a RIOK2; details: at 10 µM
[3] = biological target: T1, Serine/threonine-protein kinase BRSK1 (Homo sapiens) (UniProt Q8TDC3); assay: Selectivity interaction (Upstate Kinase Profiler service (Millipore)) EUB0000056c BRSK1; details: at 1 µM
T1 sequence (whole entry): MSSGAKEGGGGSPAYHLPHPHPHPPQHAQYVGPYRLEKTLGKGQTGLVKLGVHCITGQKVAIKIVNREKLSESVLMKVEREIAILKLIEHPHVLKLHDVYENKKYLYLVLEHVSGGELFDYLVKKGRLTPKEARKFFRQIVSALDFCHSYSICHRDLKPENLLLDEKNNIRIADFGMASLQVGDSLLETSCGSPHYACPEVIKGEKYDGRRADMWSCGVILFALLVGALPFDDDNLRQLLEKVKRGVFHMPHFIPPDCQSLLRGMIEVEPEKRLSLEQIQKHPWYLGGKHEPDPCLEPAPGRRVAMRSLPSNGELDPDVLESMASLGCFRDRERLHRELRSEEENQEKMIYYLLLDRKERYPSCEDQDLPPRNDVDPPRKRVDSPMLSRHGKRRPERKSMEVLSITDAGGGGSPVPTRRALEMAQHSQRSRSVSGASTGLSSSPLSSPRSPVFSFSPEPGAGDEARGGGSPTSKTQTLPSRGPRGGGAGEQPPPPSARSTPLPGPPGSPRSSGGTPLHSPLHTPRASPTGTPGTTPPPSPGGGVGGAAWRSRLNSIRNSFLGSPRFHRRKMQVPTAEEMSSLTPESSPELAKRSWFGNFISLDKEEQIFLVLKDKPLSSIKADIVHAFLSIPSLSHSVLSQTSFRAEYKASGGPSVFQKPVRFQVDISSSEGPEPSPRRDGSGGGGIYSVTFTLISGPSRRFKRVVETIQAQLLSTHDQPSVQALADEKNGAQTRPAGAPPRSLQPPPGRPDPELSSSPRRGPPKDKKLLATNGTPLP

[4] = biological target: T2, Beta-adrenergic receptor kinase 1 (Homo sapiens) (UniProt P25098); assay: Selectivity interaction (Kinase panel (Invitrogen)) EUB0000639a ADRBK1; details: at 200 nM
T2 sequence (whole entry): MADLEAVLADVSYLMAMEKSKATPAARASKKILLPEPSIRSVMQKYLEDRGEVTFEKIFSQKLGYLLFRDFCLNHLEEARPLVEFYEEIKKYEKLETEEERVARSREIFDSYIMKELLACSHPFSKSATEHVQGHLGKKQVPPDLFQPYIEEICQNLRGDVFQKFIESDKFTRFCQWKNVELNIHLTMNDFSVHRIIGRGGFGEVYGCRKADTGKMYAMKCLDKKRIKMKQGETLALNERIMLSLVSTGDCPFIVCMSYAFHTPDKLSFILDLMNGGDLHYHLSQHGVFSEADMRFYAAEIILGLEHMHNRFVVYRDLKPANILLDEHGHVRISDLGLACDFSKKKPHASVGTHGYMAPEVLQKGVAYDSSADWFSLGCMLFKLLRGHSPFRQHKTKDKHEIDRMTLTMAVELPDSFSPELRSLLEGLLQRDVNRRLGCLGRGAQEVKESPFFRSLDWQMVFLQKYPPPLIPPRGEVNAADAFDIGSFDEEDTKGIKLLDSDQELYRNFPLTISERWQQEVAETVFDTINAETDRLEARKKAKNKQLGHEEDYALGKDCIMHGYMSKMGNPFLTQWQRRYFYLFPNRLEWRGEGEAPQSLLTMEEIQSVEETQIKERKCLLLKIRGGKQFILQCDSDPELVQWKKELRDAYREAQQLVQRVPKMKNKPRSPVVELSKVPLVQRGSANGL

[5] = biological target: T3, Rhodopsin kinase GRK7 (Homo sapiens) (UniProt Q8WTQ7); assay: Selectivity interaction (KinomeScan (DiscoverX)) EUB0000695a GRK7; details: at 100 nM
T3 sequence (whole entry): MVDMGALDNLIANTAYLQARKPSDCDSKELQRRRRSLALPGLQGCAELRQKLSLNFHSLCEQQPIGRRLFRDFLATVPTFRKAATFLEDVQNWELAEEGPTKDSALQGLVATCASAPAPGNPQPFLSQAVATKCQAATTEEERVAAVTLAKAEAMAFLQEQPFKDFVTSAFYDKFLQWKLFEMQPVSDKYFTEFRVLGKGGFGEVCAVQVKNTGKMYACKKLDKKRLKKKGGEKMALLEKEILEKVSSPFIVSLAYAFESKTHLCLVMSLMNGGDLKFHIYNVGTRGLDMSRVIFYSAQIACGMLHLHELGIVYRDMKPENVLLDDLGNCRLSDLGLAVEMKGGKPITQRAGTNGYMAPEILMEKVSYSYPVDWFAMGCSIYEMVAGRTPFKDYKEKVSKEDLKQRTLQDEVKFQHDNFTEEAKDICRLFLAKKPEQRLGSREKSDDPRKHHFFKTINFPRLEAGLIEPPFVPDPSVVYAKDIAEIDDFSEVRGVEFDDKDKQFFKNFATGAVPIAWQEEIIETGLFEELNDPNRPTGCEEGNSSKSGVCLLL

[6] = biological target: Mitogen-activated protein kinase 14 (Homo sapiens, UniProt Q16539); assay: Selectivity interaction (Radiometric kinase assay (using 10 uM ATP)) EUB0000601a MAPK14
[7] = biological target: Macrophage-stimulating protein receptor (Homo sapiens, UniProt Q04912); assay: Selectivity interaction (KinomeScan (DiscoverX)) EUB0001049a MST1R; details: at 1 µM
[8] = biological target: Ephrin type-A receptor 5 (Homo sapiens) (UniProt P54756); assay: Selectivity interaction (Kinase panel (DSF assay)) EUB0001558a EPHA5
[9] = biological target: T4, Dual specificity mitogen-activated protein kinase kinase 6 (Homo sapiens) (UniProt P52564); assay: Selectivity interaction (KinomeScan (DiscoverX)) EUB0001079a MAP2K6; details: at 1 µM
T4 sequence (whole entry): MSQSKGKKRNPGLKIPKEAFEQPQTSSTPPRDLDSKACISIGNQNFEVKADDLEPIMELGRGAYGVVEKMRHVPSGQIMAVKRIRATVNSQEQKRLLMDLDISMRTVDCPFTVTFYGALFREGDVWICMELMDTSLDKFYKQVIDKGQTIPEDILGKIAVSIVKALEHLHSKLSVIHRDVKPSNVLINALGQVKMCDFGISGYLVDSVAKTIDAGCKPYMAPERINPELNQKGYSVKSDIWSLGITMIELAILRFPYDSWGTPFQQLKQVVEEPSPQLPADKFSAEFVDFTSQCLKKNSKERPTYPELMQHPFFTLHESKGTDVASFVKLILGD

[10] = biological target: Histone-lysine N-methyltransferase, H3 lysine-36 specific (Homo sapiens) (UniProt Q96L73); assay: Selectivity interaction (PWWP, WD40, and Tudor domain panel (DSLS measurements, literature)) EUB0000270b NSD1
Chain of Histone-lysine N-methyltransferase, H3 lysine-36 specific (Homo sapiens) (Q96L73 whole entry, the tested form may be a part): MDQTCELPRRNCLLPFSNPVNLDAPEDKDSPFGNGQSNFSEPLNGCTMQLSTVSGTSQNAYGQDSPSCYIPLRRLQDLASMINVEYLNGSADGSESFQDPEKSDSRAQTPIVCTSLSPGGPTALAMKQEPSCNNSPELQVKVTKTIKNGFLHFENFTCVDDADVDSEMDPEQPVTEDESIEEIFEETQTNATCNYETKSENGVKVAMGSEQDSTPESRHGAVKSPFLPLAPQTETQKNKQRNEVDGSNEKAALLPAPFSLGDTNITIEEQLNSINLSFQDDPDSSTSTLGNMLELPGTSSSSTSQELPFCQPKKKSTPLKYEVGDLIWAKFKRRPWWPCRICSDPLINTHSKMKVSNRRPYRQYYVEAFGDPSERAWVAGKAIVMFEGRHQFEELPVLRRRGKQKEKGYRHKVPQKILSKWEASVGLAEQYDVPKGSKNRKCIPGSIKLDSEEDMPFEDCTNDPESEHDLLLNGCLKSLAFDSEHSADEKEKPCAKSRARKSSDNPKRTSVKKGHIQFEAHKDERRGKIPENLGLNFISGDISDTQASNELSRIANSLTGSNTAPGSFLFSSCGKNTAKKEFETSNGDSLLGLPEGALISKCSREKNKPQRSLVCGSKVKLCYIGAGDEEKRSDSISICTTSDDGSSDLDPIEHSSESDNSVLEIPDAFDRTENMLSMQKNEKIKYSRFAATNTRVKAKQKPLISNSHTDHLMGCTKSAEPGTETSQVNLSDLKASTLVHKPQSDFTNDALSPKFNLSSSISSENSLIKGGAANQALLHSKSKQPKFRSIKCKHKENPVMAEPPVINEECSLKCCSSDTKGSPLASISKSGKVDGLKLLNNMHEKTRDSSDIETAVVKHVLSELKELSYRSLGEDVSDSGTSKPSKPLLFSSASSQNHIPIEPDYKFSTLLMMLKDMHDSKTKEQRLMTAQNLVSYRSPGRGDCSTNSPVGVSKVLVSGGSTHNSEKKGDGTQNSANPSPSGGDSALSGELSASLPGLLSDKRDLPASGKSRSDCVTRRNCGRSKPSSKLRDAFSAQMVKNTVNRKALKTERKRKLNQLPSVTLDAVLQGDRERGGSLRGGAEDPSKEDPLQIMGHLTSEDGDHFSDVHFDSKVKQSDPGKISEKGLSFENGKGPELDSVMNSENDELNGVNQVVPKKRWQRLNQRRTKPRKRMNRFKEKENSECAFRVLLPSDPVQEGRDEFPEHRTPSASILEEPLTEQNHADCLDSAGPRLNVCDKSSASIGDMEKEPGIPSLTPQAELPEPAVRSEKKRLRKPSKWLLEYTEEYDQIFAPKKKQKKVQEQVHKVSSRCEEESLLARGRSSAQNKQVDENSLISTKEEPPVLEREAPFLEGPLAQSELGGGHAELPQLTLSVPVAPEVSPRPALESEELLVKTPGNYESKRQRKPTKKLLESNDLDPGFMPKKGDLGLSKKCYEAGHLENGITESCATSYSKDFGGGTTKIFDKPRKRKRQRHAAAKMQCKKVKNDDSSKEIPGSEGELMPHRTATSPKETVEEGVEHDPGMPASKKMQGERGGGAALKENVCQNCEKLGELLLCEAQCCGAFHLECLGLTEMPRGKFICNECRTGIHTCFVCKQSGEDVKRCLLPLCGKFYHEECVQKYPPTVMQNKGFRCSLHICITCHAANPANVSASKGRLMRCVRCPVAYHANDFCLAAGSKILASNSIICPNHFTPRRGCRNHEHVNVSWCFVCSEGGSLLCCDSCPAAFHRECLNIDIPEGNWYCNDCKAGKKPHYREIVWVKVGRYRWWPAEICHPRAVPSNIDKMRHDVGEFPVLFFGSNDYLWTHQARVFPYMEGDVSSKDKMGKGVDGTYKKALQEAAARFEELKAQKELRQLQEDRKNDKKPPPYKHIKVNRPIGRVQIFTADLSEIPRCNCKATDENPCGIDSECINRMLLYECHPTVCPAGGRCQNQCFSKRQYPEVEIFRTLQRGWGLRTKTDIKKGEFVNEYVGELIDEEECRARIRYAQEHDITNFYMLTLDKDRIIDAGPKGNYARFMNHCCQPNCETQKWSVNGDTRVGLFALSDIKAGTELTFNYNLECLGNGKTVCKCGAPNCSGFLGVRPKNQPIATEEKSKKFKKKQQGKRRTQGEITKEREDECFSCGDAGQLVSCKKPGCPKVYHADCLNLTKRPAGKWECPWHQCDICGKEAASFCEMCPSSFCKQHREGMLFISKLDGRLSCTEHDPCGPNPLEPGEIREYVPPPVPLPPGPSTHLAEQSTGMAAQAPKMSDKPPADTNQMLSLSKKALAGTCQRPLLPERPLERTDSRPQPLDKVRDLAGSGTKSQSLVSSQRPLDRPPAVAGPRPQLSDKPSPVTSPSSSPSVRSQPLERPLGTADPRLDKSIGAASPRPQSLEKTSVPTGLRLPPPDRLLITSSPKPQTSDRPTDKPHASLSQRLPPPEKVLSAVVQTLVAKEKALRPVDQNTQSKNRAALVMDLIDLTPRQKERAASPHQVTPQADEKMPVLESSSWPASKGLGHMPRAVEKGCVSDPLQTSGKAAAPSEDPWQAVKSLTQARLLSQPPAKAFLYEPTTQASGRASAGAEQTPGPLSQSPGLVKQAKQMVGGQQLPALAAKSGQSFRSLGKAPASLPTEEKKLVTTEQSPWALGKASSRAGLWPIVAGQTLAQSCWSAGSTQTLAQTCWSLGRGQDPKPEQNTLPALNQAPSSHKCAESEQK

Chain of Serine/threonine-protein kinase RIO2 (Homo sapiens) (Q9BVS4 whole entry, looked up): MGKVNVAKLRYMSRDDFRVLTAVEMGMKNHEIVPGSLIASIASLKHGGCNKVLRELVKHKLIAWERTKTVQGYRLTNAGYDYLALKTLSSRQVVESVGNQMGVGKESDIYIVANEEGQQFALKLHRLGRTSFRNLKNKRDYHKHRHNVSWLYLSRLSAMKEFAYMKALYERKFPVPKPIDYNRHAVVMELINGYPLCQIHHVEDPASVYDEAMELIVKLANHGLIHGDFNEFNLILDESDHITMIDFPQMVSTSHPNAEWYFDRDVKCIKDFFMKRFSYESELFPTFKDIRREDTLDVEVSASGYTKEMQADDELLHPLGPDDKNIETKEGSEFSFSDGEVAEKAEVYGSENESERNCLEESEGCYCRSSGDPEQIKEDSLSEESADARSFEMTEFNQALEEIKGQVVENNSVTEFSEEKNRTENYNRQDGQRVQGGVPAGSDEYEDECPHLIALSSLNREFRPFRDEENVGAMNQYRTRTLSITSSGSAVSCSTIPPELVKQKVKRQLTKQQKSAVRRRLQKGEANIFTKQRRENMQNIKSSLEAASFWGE
Chain of RAC-alpha serine/threonine-protein kinase (P31749 whole entry): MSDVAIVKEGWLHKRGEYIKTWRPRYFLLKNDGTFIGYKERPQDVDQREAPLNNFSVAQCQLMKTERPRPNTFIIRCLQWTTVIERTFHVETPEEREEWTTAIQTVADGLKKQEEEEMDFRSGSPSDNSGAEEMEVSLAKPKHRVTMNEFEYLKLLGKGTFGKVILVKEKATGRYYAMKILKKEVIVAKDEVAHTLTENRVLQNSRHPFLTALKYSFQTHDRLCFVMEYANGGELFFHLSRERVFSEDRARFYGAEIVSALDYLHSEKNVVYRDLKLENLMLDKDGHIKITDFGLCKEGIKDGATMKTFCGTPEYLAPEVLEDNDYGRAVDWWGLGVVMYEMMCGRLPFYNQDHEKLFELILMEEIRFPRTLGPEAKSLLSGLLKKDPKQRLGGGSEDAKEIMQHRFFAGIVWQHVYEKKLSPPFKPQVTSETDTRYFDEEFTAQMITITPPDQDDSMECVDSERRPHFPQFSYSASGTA
Chain of Mitogen-activated protein kinase 14 (Q16539 whole entry): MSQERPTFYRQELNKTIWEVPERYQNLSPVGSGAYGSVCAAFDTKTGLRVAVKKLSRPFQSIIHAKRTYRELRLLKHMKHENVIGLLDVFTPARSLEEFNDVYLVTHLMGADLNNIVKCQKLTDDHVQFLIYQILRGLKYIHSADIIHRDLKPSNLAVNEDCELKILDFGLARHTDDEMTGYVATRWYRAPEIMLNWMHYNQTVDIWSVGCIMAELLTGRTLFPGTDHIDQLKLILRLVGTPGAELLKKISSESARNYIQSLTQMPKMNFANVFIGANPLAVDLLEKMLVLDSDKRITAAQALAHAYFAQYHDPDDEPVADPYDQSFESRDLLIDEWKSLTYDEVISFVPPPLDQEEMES
Chain of Ephrin type-A receptor 5 (Homo sapiens) (P54756 whole entry): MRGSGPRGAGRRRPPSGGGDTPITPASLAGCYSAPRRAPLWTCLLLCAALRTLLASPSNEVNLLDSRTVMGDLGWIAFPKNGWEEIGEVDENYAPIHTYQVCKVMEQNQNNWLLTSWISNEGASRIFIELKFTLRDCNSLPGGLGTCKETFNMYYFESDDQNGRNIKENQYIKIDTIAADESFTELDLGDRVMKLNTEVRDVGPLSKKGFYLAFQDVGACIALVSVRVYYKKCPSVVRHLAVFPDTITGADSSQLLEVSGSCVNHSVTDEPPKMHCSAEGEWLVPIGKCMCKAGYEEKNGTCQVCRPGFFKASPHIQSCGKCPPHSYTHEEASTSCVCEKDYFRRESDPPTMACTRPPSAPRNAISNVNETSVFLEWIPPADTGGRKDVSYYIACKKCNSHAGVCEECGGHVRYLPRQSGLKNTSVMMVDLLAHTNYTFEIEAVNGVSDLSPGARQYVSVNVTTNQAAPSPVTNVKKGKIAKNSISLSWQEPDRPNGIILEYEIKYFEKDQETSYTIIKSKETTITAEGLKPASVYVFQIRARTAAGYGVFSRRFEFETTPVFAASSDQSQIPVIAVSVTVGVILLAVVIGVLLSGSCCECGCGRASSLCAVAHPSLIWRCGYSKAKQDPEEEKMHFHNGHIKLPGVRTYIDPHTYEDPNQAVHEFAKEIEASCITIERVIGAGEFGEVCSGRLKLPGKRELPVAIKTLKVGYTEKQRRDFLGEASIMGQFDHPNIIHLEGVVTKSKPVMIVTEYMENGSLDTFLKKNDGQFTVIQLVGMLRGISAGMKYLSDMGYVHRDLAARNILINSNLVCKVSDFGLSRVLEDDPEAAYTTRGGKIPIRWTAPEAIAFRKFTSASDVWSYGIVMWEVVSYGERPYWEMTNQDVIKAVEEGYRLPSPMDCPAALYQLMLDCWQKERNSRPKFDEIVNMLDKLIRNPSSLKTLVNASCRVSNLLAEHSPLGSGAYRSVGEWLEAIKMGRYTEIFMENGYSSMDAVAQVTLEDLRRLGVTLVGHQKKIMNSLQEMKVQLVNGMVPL

SMILES: Cn1cc(-n2cnc3c(NCc4nc5cc(Cl)c(Cl)cc5[nH]4)nc(N4CCOCC4)nc32)cn1
% of control [1]: -0.23%

SMILES: CNC(=O)Nc1ccc(-c2nc(N3CC4CCC(C3)O4)c3cnn(C4CCC5(CC4)OCCO5)c3n2)cc1
% of control [2]: 90%

SMILES: Cc1cc(F)c(C(=O)Nc2cccc(-c3nncn3C(C)C)n2)cc1-n1cnc(C2CC2)c1
% of control [5]: 97%

SMILES: COc1cc(Nc2nc(C)cc(-c3cnn4nc(OC)ccc34)n2)cc(C(F)(F)F)c1
% of control [7]: 94%

SMILES: CC(C)(O)[C@H](F)CN1Cc2cc(NC(=O)c3cnn4cccnc34)c(N3CCOCC3)cc2C1=O
dTM [8]: 2.4 K

SMILES: Nc1cnc(N2CCc3cc(S(=O)(=O)Nc4c(F)cc(Cl)cc4F)cc(N4CCCC4=O)c32)nc1 [TP-020n]
% of control [9]: 71%

Results, then the molecule that gave them:

% of inhibition [3]: 80%
SMILES: Cc1ccc(-c2ccc3c(ccc4sc5c(c43)NC[C@@H](C)NC5=O)n2)cn1

% of inhibition [4]: 0.284%
SMILES: CC[C@@H]1[C@H](F)C(=O)N[C@@H]1COc1nccc2cc(C(N)=O)c(OC)cc12 [ZIMLOVISERTIB]

IC50 [6]: > 11 µM
SMILES: CCc1cc(Nc2nccc(-c3c(-c4ccc(OC)c(C(=O)Nc5c(F)cccc5F)c4)nc4ccccn34)n2)c(OC)cc1N1CCC(N2CCN(S(C)(=O)=O)CC2)CC1

dTagg [10]: 0.1 K
SMILES: Cc1cc(CN)cc(C)c1-c1ncn(C)c1-c1cncn1C
